In brackets after ≈: the same amount, converted by molar mass. Read-outs that look alike come from different tables or passages of the source.
How the values were obtained:
physchem = conditions: 25 °C, thermodynamic from solid
[1] = 0.1N HCl, 1.0% DMSO, 24-hour incubation at ambient temperature, maximum theoretical 100 μM, first value of the cell
[2] = 1×PBS buffer (pH 7.4), 1.0% DMSO, 24-hour incubation at ambient temperature, maximum theoretical 100 μM, second value of the cell

| SMILES | solubility (physchem; fassif) [µg/mL] | solubility (physchem; fessif) [µg/mL] | pH 2 solubility (pH 2) | pH 7 solubility (pH 7.4) | pH 2 solubility [1] [μM] | pH 7 solubility [2] [μM] |
| --- | --- | --- | --- | --- | --- | --- |
| CN(Cc1ccccc1OP(=O)(O)O)C(=O)N(c1nn(CC(F)(F)F)c2c(-c3ccc(C#CC(C)(C)S(C)(=O)=O)nc3[C@H](Cc3cc(F)cc(F)c3)NC(=O)Cn3nc(C(F)(F)F)c4c3C(F)(F)[C@@H]3C[C@H]43)ccc(Cl)c12)S(C)(=O)=O [Compound 67, 2-((3-(4-chloro-7-(2-((S)-1-(2-((3bS,4aR)-5,5-difluoro-3-(trifluoromethyl)-3b,4,4a,5-tetrahydro-1H-cyclopropa[3,4]cyclopenta[1,2-c]pyrazol-1-yl)acetamido)-2-(3,5-difluorophenyl)ethyl)-6-(3-methyl-3-(methylsulfonyl)but-1-yn-1-yl)pyridin-3-yl)-1-(2,2,2-trifluoroethyl)-1H-indazol-3-yl)-1-methyl-3-(methylsulfonyl)ureido)methyl)phenyl dihydrogen phosphate] | 536 | 707 | 2/79 μM | 2/79 μM |  |  |
| CC(C)(C#Cc1ccc(-c2ccc(Cl)c3c(N(C(=O)OCCNC(=O)OCOP(=O)(O)O)S(C)(=O)=O)nn(CC(F)(F)F)c23)c([C@H](Cc2cc(F)cc(F)c2)NC(=O)Cn2nc(C(F)(F)F)c3c2C(F)(F)[C@@H]2C[C@H]32)n1)S(C)(=O)=O [Compound 137, 2-((((phosphonooxy)methoxy)carbonyl)amino)ethyl (4-chloro-7-(2-((S)-1-(2-((3bS,4aR)-5,5-difluoro-3-(trifluoromethyl)-3b,4,4a,5-tetrahydro-1H-cyclopropa[3,4]cyclopenta[1,2-c]pyrazol-1-yl)acetamido)-2-(3,5-difluorophenyl)ethyl)-6-(3-methyl-3-(methylsulfonyl)but-1-yn-1-yl)pyridin-3-yl)-1-(2,2,2-trifluoroethyl)-1H-indazol-3-yl)(methylsulfonyl)carbamate] | 950 (≈ 786 µM) |  |  |  | 1 | 85 |
| CN(CCOC(=O)N(c1nn(CC(F)(F)F)c2c(-c3ccc(C#CC(C)(C)S(C)(=O)=O)nc3[C@H](Cc3cc(F)cc(F)c3)NC(=O)Cn3nc(C(F)(F)F)c4c3C(F)(F)[C@@H]3C[C@H]43)ccc(Cl)c12)S(C)(=O)=O)C(=O)OCOP(=O)(O)O [Compound 133, (phosphonooxy)methyl (2-(((4-chloro-7-(2-((S)-1-(2-((3bS,4aR)-5,5-difluoro-3-(trifluoromethyl)-3b,4,4a,5-tetrahydro-1H-cyclopropa[3,4]cyclopenta[1,2-c]pyrazol-1-yl)acetamido)-2-(3,5-difluorophenyl)ethyl)-6-(3-methyl-3-(methylsulfonyl)but-1-yn-1-yl)pyridin-3-yl)-1-(2,2,2-trifluoroethyl)-1H-indazol-3-yl)(methylsulfonyl)carbamoyl)oxy)ethyl)(methyl)carbamate] | 194 (≈ 159 µM) |  |  |  | 1 | 81 |
| CN(CCN(C)C(=O)N(c1nn(CC(F)(F)F)c2c(-c3ccc(C#CC(C)(C)S(C)(=O)=O)nc3[C@H](Cc3cc(F)cc(F)c3)NC(=O)Cn3nc(C(F)(F)F)c4c3C(F)(F)[C@@H]3C[C@H]43)ccc(Cl)c12)S(C)(=O)=O)C(=O)OCOP(=O)(O)O [Compound 83, (phosphonooxy)methyl (2-(3-(4-chloro-7-(2-((S)-1-(2-((3bS,4aR)-5,5-difluoro-3-(trifluoromethyl)-3b,4,4a,5-tetrahydro-1H-cyclopropa[3,4]cyclopenta[1,2-c]pyrazol-1-yl)acetamido)-2-(3,5-difluorophenyl)ethyl)-6-(3-methyl-3-(methylsulfonyl)but-1-yn-1-yl)pyridin-3-yl)-1-(2,2,2-trifluoroethyl)-1H-indazol-3-yl)-1-methyl-3-(methylsulfonyl)ureido)ethyl)(methyl)carbamate] | 1950 (≈ 1580 µM) | 500 (≈ 404 µM) | 1/61 μM | 1/61 μM |  |  |

From patent publication US12404262B2 (priority 2021, dated 2025)
